15 compounds from ChEMBL document CHEMBL1131700, “Synthesis and biological evaluation of novel cryptophycin analogs with modification in the beta-alanine region” (Bioorg Med Chem Lett, 1999) can be followed below.

Each structure is given as a SMILES string. pIC50: −log10 of the molar value.

The species entered for the first test is Mus musculus. The test can be described thus: Compound was tested for its antitumor activity in murine pancreatic adenocarcinoma PO3 model at the maximum tolerated dose(MTD). The test is classed as functional.
Conditions: not given
In general, T/C refers to the result in the treated group divided by that in the control group, in per cent. In the case of `COc1ccc(C[C@H]2NC(=O)/C=C/C[C@@H]([C@H](C)[C@H]3O[C@@H]3c3ccccc3)OC(=O)[C@H](CC(C)C)OC(=O)[C@H](C)CNC2=O)cc1Cl` [CRYPTOPHYCIN A], the T/C is below 5%. The same measure, in the same setting: the figure for `COc1ccc(C[C@H]2NC(=O)/C=C/C[C@@H]([C@H](C)[C@H]3O[C@@H]3c3ccccc3)OC(=O)[C@H](CC(C)C)OC(=O)C(C)(C)CNC2=O)cc1Cl` [CRYPTOPHYCIN 52] is below 5%.

For another test, the species on record is Homo sapiens. The test can be described thus: Antiproliferative activity was evaluated by the 72 hr MTT cell viability assay using human colon carcinoma cells (GC3). In kind it is functional. The note with it: Homo sapiens, MTT, 72 h.
Broadly, the pIC50 is −log10 of the IC50, conventionally taken in molar units. A high value points to a low IC50. On to `COc1ccc(C[C@H]2NC(=O)/C=C/C[C@@H]([C@H](C)[C@H]3O[C@@H]3c3ccccc3)OC(=O)[C@H](CC(C)C)OC(=O)[C@H](C)NC2=O)cc1Cl`, for which the pIC50 is 7.89. On to `COc1ccc(C[C@H]2NC(=O)/C=C/C[C@@H]([C@H](C)[C@H]3O[C@@H]3c3ccccc3)OC(=O)[C@H](CC(C)C)OC(=O)[C@@H]3CCCN3C2=O)cc1Cl`, for which the pIC50 was below 5.82.

Take `COc1ccc(C[C@H]2NC(=O)/C=C/C[C@@H]([C@H](C)[C@H]3O[C@@H]3c3ccccc3)OC(=O)[C@H](CC(C)C)NC(=O)C[C@@H](C)NC2=O)cc1Cl`: the pIC50 was 10.22. Same read-out and setting: then `COc1ccc(C[C@H]2NC(=O)/C=C/C[C@@H]([C@H](C)[C@H]3O[C@@H]3c3ccccc3)OC(=O)[C@H](CC(C)C)OC(=O)[C@H](C)CNC2=O)cc1Cl` [CRYPTOPHYCIN A], with 9.62. In turn, `COc1ccc(C[C@H]2NC(=O)/C=C/C[C@@H]([C@H](C)[C@H]3O[C@@H]3c3ccccc3)OC(=O)[C@H](CC(C)C)OC(=O)[C@@H]3CCCCC3NC2=O)cc1Cl` (some centres not stated) had a pIC50 of 8.89. The same measure, in the same setting: then `COc1ccc(C[C@H]2NC(=O)/C=C/C[C@@H]([C@H](C)[C@H]3O[C@@H]3c3ccccc3)OC(=O)[C@H](CC(C)C)OC(=O)C(C)(C)CNC2=O)cc1Cl` [CRYPTOPHYCIN 52], with 9.70; and `COc1ccc(C[C@H]2NC(=O)/C=C/C[C@@H]([C@H](C)[C@H]3O[C@@H]3c3ccccc3)OC(=O)[C@H](CC(C)C)OC(=O)c3ccccc3NC2=O)cc1Cl`, with 6.06. The compound `COc1ccc(C[C@H]2NC(=O)/C=C/C[C@@H]([C@H](C)[C@H]3O[C@@H]3c3ccccc3)OC(=O)[C@H](CC(C)C)OC(=O)[C@H](CC(C)C)NC2=O)cc1Cl` showed a pIC50 of 6.49. In the case of `COc1ccc(C[C@H]2NC(=O)/C=C/C[C@@H]([C@H](C)[C@H]3O[C@@H]3c3ccccc3)OC(=O)[C@H](CC(C)C)OC(=O)C[C@@H](Cc3ccccc3)NC2=O)cc1Cl`, the pIC50 was 8.28. In turn, `COc1ccc(C[C@H]2NC(=O)/C=C/C[C@@H]([C@H](C)[C@H]3O[C@@H]3c3ccccc3)OC(=O)[C@H](CC(C)C)OC(=O)[C@H](C(C)C)NC2=O)cc1Cl` gave a pIC50 of 6.51. Same read-out and setting: the figure for `COc1ccc(C[C@H]2NC(=O)/C=C/C[C@@H]([C@H](C)[C@H]3O[C@@H]3c3ccccc3)OC(=O)[C@H](CC(C)C)OC(=O)[C@H](Cc3ccccc3)NC2=O)cc1Cl` is 6.00; for `COc1ccc(C[C@H]2NC(=O)/C=C/C[C@@H]([C@H](C)[C@H]3O[C@@H]3c3ccccc3)OC(=O)[C@H](CC(C)C)OC(=O)C[C@@H](c3ccccc3)NC2=O)cc1Cl` it is 9.03; for `COc1ccc(C[C@H]2NC(=O)/C=C/C[C@@H]([C@H](C)[C@H]3O[C@@H]3c3ccccc3)OC(=O)[C@H](CC(C)C)OC(=O)C[C@@H](CC(C)C)NC2=O)cc1Cl` it is 8.52.

The test is the same for the next values; noted with them: mtt.
Turning to `COc1ccc(C[C@H]2NC(=O)/C=C/C[C@@H]([C@H](C)[C@H]3O[C@@H]3c3ccccc3)OC(=O)[C@H](CC(C)C)OC(=O)C[C@@H](C)NC2=O)cc1Cl` (stereo in doubt; 12b), the pIC50 was 10.52. On the same count and under the same terms, the figure for `COc1ccc(C[C@H]2NC(=O)/C=C/C[C@@H]([C@H](C)[C@H]3O[C@@H]3c3ccccc3)OC(=O)[C@H](CC(C)C)OC(=O)C[C@@H](C)NC2=O)cc1Cl` (stereo in doubt; 12a) is 9.40.
